Converted amounts (≈) assume the structure as drawn. Where two headings read alike, the source gives them in different places. Peptide text beside a SMILES is read from it.
Tests used:
[1] = tested on: Pseudomonas aerginosa (PA231, PA235, PA239, PA249); assay: MIC growth inhibition assay, Pseudomonas aeruginosa clinical isolates; format: cell-based; conditions: average of four strains, MHB2, 18 h, 37 °C, A570 growth curves
Procedure: (§1) Bacterial clinical isolates used for initial screening were anonymously provided by the clinical microbiology laboratory of the University of Pittsburgh Medical Center (UPMC). Bacteria were stored at −80 °C and typically retrieved by obtaining single colonies on agar plates prior to subsequent liquid broth culture. Suspensions of test bacteria were prepared from the log phase of growth by diluting overnight cultures at 1:100 with fresh cation-adjusted Mueller–Hinton Broth (MHB2) and incubating for an additional 3–4 h. Bacteria were spun at 3000 g for 10 min. The pellet was resuspended in Test Condition Media to determine bacterial turbidity using a Den-1B densitometer (Grant Instruments, Beaver Falls, PA) at 0.5 McFarland units corresponding to 10^8 CFU/mL.
(§2) To examine antibacterial activity, we used minor modifications of a standard growth inhibition assay endorsed by the Clinical and Laboratory Standards Institute (CLSI), as previously described.[13] Bacteria were incubated with each of the indicated peptides in MHB2. The bacterial cells were kept in an incubator for 18 h at 37 °C, which is linked to a robotic system that feeds a plate reader every hour with one of 8 × 96-well plates. The 96-well plates are standard flat-bottom microliter plates purchased from Thermo Fisher (Waltham, MA). This setup allows the collection of growth kinetic data at A 570 (absorbance at 570 nm) to examine growth inhibition in real-time (BioTek Instruments, Winooski, VT). […] The assays are typically repeated a second time. If the MIC differs from the first assay, a third experimental trial is performed to confirm the MIC.

[2] = tested on: Acinetobacter baumannii (AB78, AB83, AB273, AB275); assay: microbe, parasite or virus in culture; format: cell-based
Procedure: as §1, §2

[3] = tested on: Escherichia coli (EC541, EC543, EC546, EC549); assay: microbe, parasite or virus in culture; format: cell-based
Procedure: as §1, §2

[4] = tested on: Klebsiella pneumoniae (KP106, KP506, KP542, KP550); assay: microbe, parasite or virus in culture; format: cell-based
Procedure: as §1, §2

[5] = tested on: Staphylococcus aureus (SA703, SA722, SA729); assay: microbe, parasite or virus in culture; format: cell-based
Procedure: as §1, §2

[6] = tested on: Enterobacter (EA62, EC544, EC547, EA1042); assay: MIC growth inhibition assay, Enterobacter clinical isolates; format: cell-based; conditions: average of four strains, MHB2, 18 h, 37 °C, A570 growth curves, read-out: MIC G(−) Entbac
Procedure: as §1, §2

[7] = tested on: G(−) bacteria (five species); assay: MIC growth inhibition assay, average over G(−) species; format: cell-based; conditions: average of the average MICs of five G(−) species, ± spread
Procedure: as §1, §2

[8] = tested on: Enterococci (EF500, EF678, EF679, EF787); assay: organism not typed; format: cell-based; conditions: read-out: MIC G(+) Entcoc
Procedure: as §1, §2

[9] = tested on: G(+) bacteria (two species); assay: MIC growth inhibition assay, average over G(+) species; format: cell-based; conditions: average of the average MICs of two G(+) species, ± spread
Procedure: as §1, §2

[10] = tested on: Staphylococcus hemolyticus 730; assay: microbe, parasite or virus in culture; format: cell-based; conditions: for MIC after 1-Hr AB incubation / MIC after 1-Hr NE digestion / MIC after 4-Hr AB incubation / MIC after 4-Hr NE digestion: pH 8; for MIC: then MIC vs Staphylococcus hemolyticus 730
Procedure: One motivation in designing linear or cyclic AMPs is to prevent proteolytic degradation that can occur with helical peptides. […] Linezolid, a conventional antibiotic was included for comparison.
as §2
The neutrophil elastase was dissolved in 200 mmol/L Tris buffer, pH 8.8, and used at a molar ratio of 1:50 with the peptide in 200 mM ammonium bicarbonate pH 8.0 for 1 or 4 h. The control experiment incubated the peptides alone in 200 mmol/L ammonium bicarbonate for 1 or 4 h. Upon completion of the incubations, the peptides were serially diluted to test MIC. 50% (v/v) MHB2 was added to the plates. MIC was determined as described above.

[11] = tested on: human red blood cells (RBCs); conditions: cited from earlier work
Text: Table 2 Antibacterial Activity and Toxicity of CE-03, LE-53, CE-05 and LE-55 Peptides ^a | column: % toxicity / RBC || The secondary structure of AMPs as they encounter membranes may correlate with their toxicity; it has long been thought that helical peptides are more toxic to eukaryotic cells than nonhelical peptides. Our group has found a positive correlation between helicity and toxicity for WLBU2,[18] the E2-peptides,[28] and SPLUNC1-derived antimicrobial peptides.[34] We have also seen the converse, that nonhelical peptides are nontoxic,[18],[26] supporting the positive correlation between helicity and toxicity. Several literature studies have also found a correlation between α-helicity and toxicity to e ...

[12] = EC541, EC543, EC546, EC549, 18 h
[13] = KP106, KP506, KP542, KP550, 18 h
[14] = average of four strains, MHB2, 18 h, 37 °C, A570 growth curves

CC(C)[C@@H]1NC(=O)[C@H](Cc2c[nH]c3ccccc23)NC(=O)[C@H](Cc2c[nH]c3ccccc23)NC(=O)[C@H](Cc2c[nH]c3ccccc23)NC(=O)[C@H](Cc2c[nH]c3ccccc23)NC(=O)[C@H](CCCNC(=N)N)NC(=O)[C@H](CCCNC(=N)N)NC(=O)[C@H](CCCNC(=N)N)NC(=O)[C@H](CCCNC(=N)N)NC(=O)[C@H](CCCNC(=N)N)NC(=O)[C@H](CCCNC(=N)N)NC(=O)[C@H](C(C)C)NC1=O [CE-03] (cyclo(RRRRRRWWWWVV))
MIC [1]: 7.1 µM (≈ 13.3 µg/mL) | MIC ([2]; AB78, AB83, AB273, AB275, 18 h): 2.2 µM (≈ 4.14 µg/mL) | MIC [3, 12]: 1.5 µM (≈ 2.82 µg/mL) | MIC [4, 13]: 8.2 µM (≈ 15.4 µg/mL) | MIC ([5]; SA703, SA722, SA729, 18 h): 2.3 µM (≈ 4.32 µg/mL) | MIC [6]: 3.7 µM (≈ 6.96 µg/mL) | MIC G(−) average [7]: 4.6 ± 1.3 µM (≈ 8.65 µg/mL) | MIC ([8]; 18 h): 0.9 µM (≈ 1.69 µg/mL) | MIC G(+) average [9]: 1.6 ± 0.7 µM (≈ 3.01 µg/mL) | MIC after 1-Hr AB incubation [10]: 1.0 ± 0.0 µM (≈ 1.88 µg/mL) | MIC after 1-Hr NE digestion [10]: 1.5 ± 0.7 µM (≈ 2.82 µg/mL) | MIC after 4-Hr AB incubation [10]: 1.0 ± 0 µM (≈ 1.88 µg/mL) | MIC after 4-Hr NE digestion [10]: 1.0 ± 0 µM (≈ 1.88 µg/mL)

CC(C)[C@@H]1NC(=O)[C@H](Cc2c[nH]c3ccccc23)NC(=O)[C@H](Cc2c[nH]c3ccccc23)NC(=O)[C@H](Cc2c[nH]c3ccccc23)NC(=O)[C@H](Cc2c[nH]c3ccccc23)NC(=O)[C@H](CCCNC(=N)N)NC(=O)[C@H](CCCNC(=N)N)NC(=O)[C@H](CCCNC(=N)N)NC(=O)[C@H](CCCNC(=N)N)NC(=O)[C@H](CCCNC(=N)N)NC(=O)[C@H](CCCNC(=N)N)NC(=O)[C@H](CCCNC(=N)N)NC(=O)[C@H](CCCNC(=N)N)NC(=O)[C@H](C(C)C)NC(=O)[C@H](C(C)C)NC(=O)[C@H](C(C)C)NC1=O [CE-05] (cyclo(RRRRRRRRWWWWVVVV))
MIC [1]: 6.1 µM (≈ 14.6 µg/mL) | MIC ([2]; AB78, AB83, AB273, AB275, 18 h): 1.1 µM (≈ 2.63 µg/mL) | MIC [3, 12]: 2.5 µM (≈ 5.98 µg/mL) | MIC [4, 13]: 6.7 µM (≈ 16 µg/mL) | MIC ([5]; SA703, SA722, SA729, 18 h): 1.0 µM (≈ 2.39 µg/mL) | MIC [6]: 3.2 µM (≈ 7.65 µg/mL) | MIC G(−) average [7]: 3.9 ± 1.1 µM (≈ 9.32 µg/mL) | MIC after 1-Hr AB incubation [10]: 6.0 ± 2.8 µM (≈ 14.3 µg/mL) | MIC after 1-Hr NE digestion [10]: 3.0 ± 1.4 µM (≈ 7.17 µg/mL) | MIC after 4-Hr AB incubation [10]: 4.0 ± 0 µM (≈ 9.56 µg/mL) | MIC after 4-Hr NE digestion [10]: 3.0 ± 1.4 µM (≈ 7.17 µg/mL)

CC(C)[C@H](NC(=O)[C@@H](NC(=O)[C@H](Cc1c[nH]c2ccccc12)NC(=O)[C@H](Cc1c[nH]c2ccccc12)NC(=O)[C@H](Cc1c[nH]c2ccccc12)NC(=O)[C@H](Cc1c[nH]c2ccccc12)NC(=O)[C@H](CCCNC(=N)N)NC(=O)[C@H](CCCNC(=N)N)NC(=O)[C@H](CCCNC(=N)N)NC(=O)[C@H](CCCNC(=N)N)NC(=O)[C@H](CCCNC(=N)N)NC(=O)[C@@H](N)CCCNC(=N)N)C(C)C)C(=O)O [LE-53] (H-RRRRRRWWWWVV-OH)
MIC after 1-Hr AB incubation [10]: 2.0 ± 0 µM (≈ 3.8 µg/mL) | MIC after 1-Hr NE digestion [10]: 2.0 ± 0 µM (≈ 3.8 µg/mL) | MIC after 4-Hr AB incubation [10]: 3.0 ± 1.4 µM (≈ 5.69 µg/mL) | MIC after 4-Hr NE digestion [10]: 1.5 ± 0.7 µM (≈ 2.85 µg/mL) | toxicity (in words) [11]: nontoxic

CC(C)[C@H](NC(=O)[C@@H](NC(=O)[C@@H](NC(=O)[C@@H](NC(=O)[C@H](Cc1c[nH]c2ccccc12)NC(=O)[C@H](Cc1c[nH]c2ccccc12)NC(=O)[C@H](Cc1c[nH]c2ccccc12)NC(=O)[C@H](Cc1c[nH]c2ccccc12)NC(=O)[C@H](CCCNC(=N)N)NC(=O)[C@H](CCCNC(=N)N)NC(=O)[C@H](CCCNC(=N)N)NC(=O)[C@H](CCCNC(=N)N)NC(=O)[C@H](CCCNC(=N)N)NC(=O)[C@H](CCCNC(=N)N)NC(=O)[C@H](CCCNC(=N)N)NC(=O)[C@@H](N)CCCNC(=N)N)C(C)C)C(C)C)C(C)C)C(=O)O [LE-55] (H-RRRRRRRRWWWWVVVV-OH)
MIC after 1-Hr AB incubation [10]: 16.0 ± 0 µM (≈ 38.5 µg/mL) | MIC after 1-Hr NE digestion [10]: 3.0 ± 1.4 µM (≈ 7.23 µg/mL) | MIC after 4-Hr AB incubation [10]: 6.0 ± 2.8 µM (≈ 14.5 µg/mL) | MIC after 4-Hr NE digestion [10]: 3.0 ± 1.4 µM (≈ 7.23 µg/mL) | toxicity (in words) [11]: nontoxic

CC(=O)NC[C@H]1CN(c2ccc(N3CCOCC3)c(F)c2)C(=O)O1 [linezolid]
MIC ([10]; control: peptide alone in 200 mmol/L ammonium bicarbonate pH 8.0, 1 h, read-out: MIC after 1-Hr AB incubation): > 16 µM | MIC ([10]; control: peptide alone in 200 mmol/L ammonium bicarbonate pH 8.0, 4 h, read-out: MIC after 4-Hr AB incubation): > 16 µM | MIC ([10]; human neutrophil elastase, molar ratio 1:50 with peptide, 200 mM ammonium bicarbonate pH 8.0, 1 h, read-out: MIC after 1-Hr NE digestion): > 16 µM | MIC ([10]; human neutrophil elastase, molar ratio 1:50 with peptide, 200 mM ammonium bicarbonate pH 8.0, 4 h, read-out: MIC after 4-Hr NE digestion): > 16 µM

NC[C@H]1O[C@H](O[C@H]2[C@H](O)[C@@H](O[C@H]3O[C@H](CO)[C@@H](O)[C@H](N)[C@H]3O)[C@H](N)C[C@@H]2N)[C@H](N)C[C@@H]1O [tobramycin]
MIC ([1]; Pseudomonas): 32 µM (≈ 15 µg/mL) | MIC ([2]; Acinetobacter baumannii, average of four strains, MHB2, 18 h, 37 °C, A570 growth curves): 32 µM (≈ 15 µg/mL) | MIC ([3]; Escherichia coli, average of four strains, MHB2, 18 h, 37 °C, A570 growth curves): 28 µM (≈ 13.1 µg/mL) | MIC ([4]; Klebsiella pneumoniae, average of four strains, MHB2, 18 h, 37 °C, A570 growth curves): 2.1 µM (≈ 0.982 µg/mL) | MIC ([5]; Staphylococcus aureus, average of strains SA703, SA722, SA729, MHB2, 18 h, 37 °C, A570 growth curves): 13.1 µM (≈ 6.12 µg/mL) | MIC ([6]; Enterobacter): 24.5 µM (≈ 11.5 µg/mL) | MIC [7]: 23.7 ± 3.4 µM (≈ 11.1 µg/mL) | MIC [8, 14]: 25 µM (≈ 11.7 µg/mL) | MIC [9]: 19 ± 1 µM (≈ 8.88 µg/mL)

colistin
MIC [1]: 8.4 µM | MIC [2, 14]: 0.5 µM | MIC [3, 14]: 4.3 µM | MIC [4, 14]: 0.7 µM | MIC ([5]; average of strains SA703, SA722, SA729, MHB2, 18 h, 37 °C, A570 growth curves): 64.0 µM | MIC [6]: 12.1 µM | MIC G(−) average [7]: 5.2 ± 4.3 µM | MIC [8, 14]: 32.0 µM | MIC G(+) average [9]: 48.0 ± 23.0 µM
